Consider one substance from patent publication US20050180954A1, “Drug for treating bone disorders” (priority 1995, published 2005).

Test [1] relates to osteoclast like cells from bone marrow cells of mice of C 57 BL/6 strain. The test can be described thus: Formation of osteoclast like cells from bone marrow cells of mice of C 57 BL/6 strain. The conditions noted are these: Example 2, C 57 BL/6 strain bone marrow cells. It is filed as cell-based, mouse. How it is done:
The number of viable bone marrow cells was counted using tripam blue dye exclusion test and the bone marrow cells were diluted with α-MEM containing 10% JCS, 10^−8M Vit D3, 10^−7 M dexamethasone to a population density of 1.5×10^6 cells/ml, followed by placing the resulting suspension in each well in 24-well plates in an amount of 0.45 ml/well. To each well, 50 μl of the medium containing varying concentration of IFN was added to make the volume to 0.5 ml/well and culturing was begun. At every three days, 0.4 ml of the culture medium was removed from each well and 0.4 ml of fresh medium (the above-mentioned medium containing the respective concentration of IFN) was added. On Day 8 from the beginning of the culturing, the medium was removed and the cells were fixed with mixed solution of ethyl alcohol and diethyl ether (1:1) and the cells were stained with tartrate resistant acid phosphatase (TRAP), followed by counting TRAP positive multinuclear cells with a phase contrast microscope. […] The inhibition effect of IFNγ was stronger than that of IFNβ. That is, the inhibition concentration IC50 of IFNγ was not more than 0.1 units/ml, and that of IFNβ was 0.2 units/ml.
In place of mice of ddy strain, male mice of C 57 BL/6 of 7 weeks old were used. The mice were exanguinated to death under ether anesthesia and the femur and the tibia of hind legs were collected from each mouse. The connective tissues on the surfaces of the bones were carefully removed, and both ends of each bone were cut off with scissors. The bone marrow cells were suspended in α-MEM containing 10% JCS and the suspension was flushed out through a 25 G needle attached to a syringe to collect the suspension in a centrifugal tube. The collected suspension was washed by centrifugation in the same medium at 2000 rpm at 4° C. for 5 minutes. The precipitated cells were dispersed in the above-mentioned medium and the washing by centrifugation was repeated twice. Formation of osteoclast like cells was measured by the same method as in Example 1.

Test [2] has as its system ovariectomized mice of ddy strain. The test can be described thus: Osteoporosis model mice: urinary D-Pyr (bone resorption marker). It is filed as in vivo, mouse. The conditions noted are these: for amount of excreted urinary D-Pyr compensated with urinary creatinine: ovariectomized mice, Week 4. How it is done: Female mice of ddy strain of 8 weeks old were divided into 5 groups and experiment was carried out. Bilateral ovariectomy was performed on the mice in 3 groups and sham operation alone was performed on the mice in 2 groups. Thereafter, the mice were raised with normal diet for 1 month, thereby making the state of osteoporosis in the ovariectomized groups. In this model, it is known that the mice become the state of osteoporosis 2 to 3 weeks after the ovariectomy (T. Hosaka et al., ANITEX, Vol. 5, 243, 1992; Miyaura, C. et al., J. Bone Mineral Res., 10, 1365, 1995). From the third weeks from the ovariectomy, murine IFN was subcutaneously administered (100 μl/head/time) once per day, totally 25 times. On Day 30 from the beginning of administration, under ether anesthesia, body weight was measured, blood was collected, and femur was collected and dry bone weight thereof was measured for each mouse.
Drying of femur was performed as follows. That is, femur was fixed with 2 ml of 70% ethanol per one taken out femur at room temperature for 24 hours and then the attached muscles and connective tissues were carefully removed with a forceps and surgical knife with replaceable blade. After immersing the femur in fresh 70% ethanol for 72 hours at room temperature, the femur was dried in a hot wind-generating incubator (Koukensha Engineering. Co., Tokyo) at 55° C. for 24 hours. The weight of the dried bone was measured with an electronic force balance (Mettler AE50, Metteler Instrumente AG, Switzerland). Murine IFN to be administered was diluted to the desired concentration with physiological saline. During the test, urine of mice was collected with metabolic cage (KN-645, Natsumeseisakusho, Tokyo) and frozen to store. To one group subjected to the sham operation, physiological saline (Otsuka Pharmaceutical Co.) was administered, and to another group subjected to the sham operation, murine IFNβ was administered at a dose of 10^5 units/head/time (diluted with physiological saline when use). […]

Another test has as its system MC3T3-E1 cells. In words: Mineralization of murine osteoblasts, Von Kossa stain (in vitro single administration). The conditions noted are these: Day 14. It is filed as cell-based, mouse. On the procedure: As the parameters for evaluation of differentiation ability, alkaline phosphatase (ALPase) and mineralization were employed. Detection of alkaline phosphatase which is a marker of differentiation of osteoblasts was carried out on Day 8 from the beginning of the culturing by staining method. Evaluation of mineralization was carried out as follows. That is, MC3T3-E1 cells were placed in each well of 24-well plates in an amount of 50,000 cells/ml (10 times in the case of anti-cell test in Example 3). On Day 4, after confirming that the cells sufficiently reached confluency, the medium was discarded and fresh α-MEM containing 10% JCS, 50 μg/ml of L-ascorbic acid and 10 mM β-glycerophosphate was added in an amount of 0.9 ml/well, followed by adding medium containing varying concentration of IFN. Four days later, the medium was replaced with IFN-free medium, and the medium was replaced with IFN-free medium every 4 days. On Day 14, Von Kossa stain was performed to visualize the calcified foci. Expression of alkaline phosphatase activity which is a differentiation marker is an indispensable step to the subsequent mineralization.

Consider “MuIFNβ: murine interferon β, Lot M-0034, prepared by Toray Industries, Inc. by genetic engineering technique”, for which the “inhibition of formation of osteoclast like cells” value in test [1] is listed as “strongly inhibited formation of osteoclast like cells”. Besides, the “IC50 of formation inhibition of osteoclast like cells” value in test [1] (Day 8) is listed as 0.1 units/ml. For the same substance, the “amount of excreted urinary D-Pyr compensated with urinary creatinine” value in test [2] (10^3 units/head/time) and in test [2] (10^5 units/head/time) was “inhibition of bone resorption was observed” in each case. In addition, the “inhibition of excretion of urinary deoxypyridinoline” value in test [2] (sham operation groups) is given as “is exhibited also in the sham operation groups”. Moreover, in the test on MC3T3-E1 cells, the “influence on mineralization (calcified foci, Von Kossa stain)” value is recorded as “mineralization proceeded without substantial influence”.
